Assay results reported in US8598129B2, “Topical application of ivermectin for the treatment of dermatological conditions/afflictions” (Galderma S.A., priority 2003, dated 2013).

Assay: solubility of ivermectin in various solvents
Format: physicochemical
Text: The table below illustrates the solubility of ivermectin in various solvents: […]

Ivermectin
Maximum % solubility of ivermectin in the solvent concerned (weight/weight) (solvent: N-methyl-2-pyrrolidone): 58.13 % (weight/weight)
Maximum % solubility of ivermectin in the solvent concerned (weight/weight) (solvent: Propylene glycol): 21.83 % (weight/weight)
Maximum % solubility of ivermectin in the solvent concerned (weight/weight) (solvent: Propylene glycol/oleyl alcohol (4 parts/2 parts)): 27.31 % (weight/weight)
Maximum % solubility of ivermectin in the solvent concerned (weight/weight) (solvent: Triacetin): 7.22 % (weight/weight)
